{
  "source": "patent US20250114374A1",
  "about": "“BCL-2 INHIBITORS” (Newave Pharmaceutical Inc., priority 2021, published 2025)",
  "tested_on": "RS4; 11 with G101V mutation",
  "assay": "In vitro anti-proliferation assay (ATPlite luminescence) in BCL-2-dependent ALL cell line RS4;11 with G101V mutation",
  "type": "cell-based",
  "settings": "read-out: RS411-G101V IC50",
  "in_short": "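RS4;11 G101V cells at about 1×10^4 per well were exposed to a range of compound concentrations for about 72 h in medium with 10% FBS. Cellular ATP was measured by ATPlite luminescence after lysis, and IC50 was derived from the dose-response.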",
  "key": {"[1]": {"settings": "cellular anti-proliferative IC50, about 72 hours, medium with 10% FBS, ATPlite"}},
  "note": "pIC50: −log10 of the molar value. Read-outs that look alike come from different tables or passages of the source.",
  "data": [
    {"smiles": "Cc1ccc(CN2CCN(C3CC4(CCN(c5ccc(C(=O)NS(=O)(=O)c6cc7c(c([N+](=O)[O-])c6)N[C@H](C6CCOCC6)CO7)c(N6c7cc8cc[nH]c8nc7O[C@H]7COCC[C@@H]76)c5)CC4)C3)[C@H](c3ccccc3OC(C)C)C2)cn1", "note": "[Example 254, 4-(2-((R)-2-(2-isopropoxyphenyl)-4-((6-methylpyridin-3-yl)methyl)piperazin-1-yl)-7-azaspiro[3.5]nonan-7-yl)-N-(((R)-5-nitro-3-(tetrahydro-2H-pyran-4-yl)-3,4-dihydro-2H-benzo[b][1,4]oxazin-7-yl)sulfonyl)-2-((5aS,9aR)-6,7,9,9a-tetrahydro-1H-pyrano[3,4-b]pyrrolo[3′,2′:5,6]pyrido[3,2-e][1,4]oxazin-5(5aH)-yl)benzamide]", "values": [
      {"measurement": "pIC50", "setting": "Homo sapiens, RS4-11, 72 h", "result": 8.50}
    ]},
    {"smiles": "Cc1ccccc1[C@@H]1CN(C2CCC(N3CCOC[C@@H]3C)CC2)CCN1C1CC2(CCN(c3ccc(C(=O)NS(=O)(=O)c4cc5c(c([N+](=O)[O-])c4)N[C@H](C4CCOCC4)CO5)c(N4c5cc6cc[nH]c6nc5O[C@H]5COCC[C@@H]54)c3)CC2)C1", "note": "(stereo partly drawn) [Example 203, 4-(2-((R)-4-((1S,4R)-4-((S)-3-methylmorpholino)cyclohexyl)-2-(o-tolyl)piperazin-1-yl)-7-azaspiro[3.5]nonan-7-yl)-N-(((R)-5-nitro-3-(tetrahydro-2H-pyran-4-yl)-3,4-dihydro-2H-benzo[b][1,4]oxazin-7-yl)sulfonyl)-2-((5aS,9aR)-6,7,9,9a-tetrahydro-1H-pyrano[3,4-b]pyrrolo[3′,2′:5,6]pyrido[3,2-e][1,4]oxazin-5(5aH)-yl)benzamide]", "values": [
      {"measurement": "pIC50", "setting": "[1]", "result": 7.16}
    ]},
    {"smiles": "CC(C)Oc1ccccc1[C@@H]1CN([C@H]2COCc3c2ccc(F)c3F)CCN1C1CC2(CCN(c3ccc(C(=O)NS(=O)(=O)c4cc5c(c([N+](=O)[O-])c4)N[C@H](C4CCOCC4)CO5)c(N4c5cc6cc[nH]c6nc5O[C@H]5COCC[C@@H]54)c3)CC2)C1", "note": "[Example 249, 4-{2-[(2R)-4-[(4R)-7,8-difluoro-3,4-dihydro-1H-2-benzopyran-4-yl]-2-(2-isopropoxyphenyl)piperazin-1-yl]-7-azaspiro[3.5]nonan-7-yl}-2-[(3R,8S)-2,5-dioxa-9,15,17-triazatetracyclo[8.7.0.0^{3,8}.0^{12,16}]heptadeca-1(10),11,13,16-tetraen-9-yl]-N-[(3R)-5-nitro-3-(oxan-4-yl)-3,4-dihydro-2H-1,4-benzoxazin-7-ylsulfonyl]benzamide]", "values": [
      {"measurement": "pIC50", "setting": "[1]", "result": 7.92}
    ]},
    {"smiles": "CC(C)Oc1ccccc1[C@H]1CN(C2CCN(C3CCOCC3)CC2)CCN1C1CC2(CCN(c3ccc(C(=O)NS(=O)(=O)c4ccc(NC[C@H]5CC[C@](C)(O)CC5)c([N+](=O)[O-])c4)c(N4c5cc6cc[nH]c6nc5O[C@H]5COCC[C@@H]54)c3)CC2)C1", "note": "[Example 162, N-((4-((((1r,4r)-4-hydroxy-4-methylcyclohexyl)methyl)amino)-3-nitrophenyl)sulfonyl)-4-(2-((S)-2-(2-isopropoxyphenyl)-4-(1-(tetrahydro-2H-pyran-4-yl)piperidin-4-yl)piperazin-1-yl)-7-azaspiro[3.5]nonan-7-yl)-2-((5aS,9aR)-6,7,9,9a-tetrahydro-1H-pyrano[3,4-b]pyrrolo[3′,2′:5,6]pyrido[3,2-e][1,4]oxazin-5(5aH)-yl)benzamide]", "values": [
      {"measurement": "pIC50", "setting": "[1]", "result": 7.30}
    ]},
    {"smiles": "CC(C)Oc1ccccc1[C@@H]1CN([C@@H]2CCOc3nc(N4CCOC[C@@H]4C)c(F)cc32)CCN1C1CC2(CCN(c3ccc(C(=O)NS(=O)(=O)c4cc5c(c([N+](=O)[O-])c4)N[C@H](C4CCOCC4)CO5)c(N4c5cc6cc[nH]c6nc5O[C@H]5COCC[C@@H]54)c3)CC2)C1", "note": "[Example 219, 4-(2-((R)-4-((R)-6-fluoro-7-((S)-3-methylmorpholino)-3,4-dihydro-2H-pyrano[2,3-b]pyridin-4-yl)-2-(2-isopropoxyphenyl)piperazin-1-yl)-7-azaspiro[3.5]nonan-7-yl)-N-(((R)-5-nitro-3-(tetrahydro-2H-pyran-4-yl)-3,4-dihydro-2H-benzo[b][1,4]oxazin-7-yl)sulfonyl)-2-((5aS,9aR)-6,7,9,9a-tetrahydro-1H-pyrano[3,4-b]pyrrolo[3′,2′:5,6]pyrido[3,2-e][1,4]oxazin-5(5aH)-yl)benzamide]", "values": [
      {"measurement": "pIC50", "setting": "Homo sapiens, RS4-11, 72 h", "result": 7.25}
    ]},
    {"smiles": "CC(C)Oc1ccccc1[C@H]1CN(Cc2ccc3c(c2)OCCO3)CCN1C1CC2(CCN(c3ccc(C(=O)NS(=O)(=O)c4ccc(NCC5CCC(C)(O)CC5)c([N+](=O)[O-])c4)c(N4c5cc6cc[nH]c6nc5O[C@H]5COCC[C@@H]54)c3)CC2)C1", "note": "(stereo partly drawn) [Example 152, 4-(2-((S)-4-((2,3-dihydrobenzo[b][1,4]dioxin-6-yl)methyl)-2-(2-isopropoxyphenyl)piperazin-1-yl)-7-azaspiro[3.5]nonan-7-yl)-N-((4-((((1r,4r)-4-hydroxy-4-methylcyclohexyl)methyl)amino)-3-nitrophenyl)sulfonyl)-2-((5aS,9aR)-6,7,9,9a-tetrahydro-1H-pyrano[3,4-b]pyrrolo[3′,2′:5,6]pyrido[3,2-e][1,4]oxazin-5(5aH)-yl)benzamide]", "values": [
      {"measurement": "pIC50", "setting": "[1]", "result": 7.55}
    ]},
    {"smiles": "CC(C)Oc1ccccc1[C@@H]1CN(c2ccncc2)CCN1C1CC2(CCN(c3ccc(C(=O)NS(=O)(=O)c4cc5c(c([N+](=O)[O-])c4)N[C@H](C4CCOCC4)CO5)c(N4c5cc6cc[nH]c6nc5O[C@H]5COCC[C@@H]54)c3)CC2)C1", "note": "[Example 223, 4-(2-((R)-2-(2-isopropoxyphenyl)-4-(pyridin-4-yl)piperazin-1-yl)-7-azaspiro[3.5]nonan-7-yl)-N-(((R)-5-nitro-3-(tetrahydro-2H-pyran-4-yl)-3,4-dihydro-2H-benzo[b][1,4]oxazin-7-yl)sulfonyl)-2-((5aS,9aR)-6,7,9,9a-tetrahydro-1H-pyrano[3,4-b]pyrrolo[3′,2′:5,6]pyrido[3,2-e][1,4]oxazin-5(5aH)-yl)benzamide]", "values": [
      {"measurement": "pIC50", "setting": "Homo sapiens, RS4-11, 72 h", "result": 6.65}
    ]},
    {"smiles": "CC(C)Oc1ccccc1[C@@H]1CN([C@@H]2CCOc3cc(F)c(F)cc32)CCN1C1CC2(CCN(c3ccc(C(=O)NS(=O)(=O)c4cc5c(c([N+](=O)[O-])c4)N[C@H](C4CCOCC4)CO5)c(N4c5cc6cc[nH]c6nc5O[C@H]5COCC[C@@H]54)c3)CC2)C1", "note": "[Example 211, 4-{2-[(2R)-4-[(4R)-6,7-difluoro-3,4-dihydro-2H-1-benzopyran-4-yl]-2-(2-isopropoxyphenyl)piperazin-1-yl]-7-azaspiro[3.5]nonan-7-yl}-2-[(3R,8S)-2,5-dioxa-9,15,17-triazatetracyclo[8.7.0.0^{3,8}.0^{12,16}]heptadeca-1(10),11,13,16-tetraen-9-yl]-N-[(3R)-5-nitro-3-(oxan-4-yl)-3,4-dihydro-2H-1,4-benzoxazin-7-ylsulfonyl]benzamide]", "values": [
      {"measurement": "pIC50", "setting": "[1]", "result": 7.06}
    ]},
    {"smiles": "COc1cc(CN2CCN(C3CC4(CCN(c5ccc(C(=O)NS(=O)(=O)c6cc7c(c([N+](=O)[O-])c6)N[C@H](C6CCOCC6)CO7)c(N6c7cc8cc[nH]c8nc7O[C@H]7COCC[C@@H]76)c5)CC4)C3)[C@H](c3ccccc3C)C2)cnc1N1CCOC[C@@H]1C", "note": "[Example 187, 2-[(3R,8S)-2,5-dioxa-9,15,17-triazatetracyclo[8.7.0.0^{3,8}.0^{12,16}]heptadeca-1(10),11,13,16-tetraen-9-yl]-4-{2-[(2R)-4-({5-methoxy-6-[(3S)-3-methylmorpholin-4-yl]pyridin-3-yl}methyl)-2-(2-methylphenyl)piperazin-1-yl]-7-azaspiro[3.5]nonan-7-yl}-N-[(3R)-5-nitro-3-(oxan-4-yl)-3,4-dihydro-2H-1,4-benzoxazin-7-ylsulfonyl]benzamide]", "values": [
      {"measurement": "pIC50", "setting": "[1]", "result": 8.69}
    ]}
  ]
}
